Assay results as given in patent publication US20130072899A1, “Pharmaceutical Formulations for Iontophoretic Delivery of Gallium” (Nitric BloTherapeutics, Inc., priority 2008, published 2013).

Key:
[1] = 25° C., 0.01M; cited from earlier work
[2] = Effect of pH on skin permeability (tritiated water permeation, Franz cells); format: in vitro ADME, human; conditions: 70 h passive permeation

average radioactive count in the receiver compartment ([2]; pH 2) [DPM/mL] | average radioactive count in the receiver compartment ([2]; pH 5) [DPM/mL] | Compound | Log β (stability constant) [1]
 |  | O=C([O-])CC(O)(CC(=O)[O-])C(=O)[O-].[Ga+3] [Ga citrate] | 10.02
 |  | [OH][Ga+][OH] [Ga(OH)2^+] | −6.6
 |  | [Ga+3].[OH-].[OH-].[OH-] [Ga(OH)3] | −11.0
 |  | [OH][Ga-]([OH])([OH])[OH] [Ga(OH)4^−] | −15.66
 |  | [OH][Ga+2] [GaOH^++] | −2.9
55860±25106 | 60557±20376 | [3H]O[3H] [tritiated water, Tritiated water] | 
